Test results as given in US20020110808A1, “Toxicant-induced differential gene expression” (priority 2000, published 2002).

Columns and labels:
[1] = test system: HepG2 cells; test: BrdU incorporation cell proliferation assay; assay type: cell-based; settings: Homo sapiens
Protocol: HepG2 cells (see e.g., Aden et al., Nature 282:615-616 (1979)) (ATCC HB-8065) were maintained in DMEM/F-12 medium with 10% fetal bovine serum and 1% antibiotic/antimycotic. For routine culturing and mRNA preps, cells were grown in 75 cm^2 flasks and split every 4-5 days. For plate assays, cells were plated in 96-well microtiter plates at 1×10^5 cells per well in 100 μl of growth medium.
Depending on the desired exposure time, cell treatments began 3 or 4 days after splitting or plating. At this time, the cells were near or at confluency. […] Cell treatments were at 37° C.
Uptake of 5-bromo-2′-deoxyuridine (BrdU) was measured using the Cell Proliferation ELISA kit from Boehringer-Mannheim (Indianapolis, Ind.).
Cell proliferation assays based on measurement of BrdU incorporation were performed according to the manufacturer's instructions (Boehringer Mannheim “Cell Proliferation ELISA Kit”).

[2] = test system: HepG2 cells; test: Dot blot array expression assay; settings: 24 hr, two-fold threshold
Protocol: The quality of the PCR reactions was assessed by agarose gel electrophoresis. Human genomic DNA (Clontech) and PCR products were robotically dotted in 100 nl aliquots onto positively-charged nylon membranes using the BioDot instrument (Cartesian Technologies, Inc.). After uv-crosslinking, the membranes were rinsed in 2× SSC and allowed to air-dry. Prior to addition of labeled cDNA probes, membranes were washed in boiling 1% SDS, rinsed with 6× SSC, and incubated in 5 mL of 42° C. Microhyb solution (Research Genetics) for 2 hr. Ten minutes prior to addition of the probes, the Microhyb solution was replaced with an equal amount of fresh 42° C. Microhyb solution containing denatured human Cot-1 DNA (Gibco BRL) and poly(dA) primer (Research Genetics) (both at final concentrations of 1 ng/μl).
For each reverse transcription reaction, 2 μg of mRNA was incubated with oligo(dT) primer (200 ng/μl) at 70° C. for 10 minutes. Tubes were chilled and spun briefly. The following reagents (with the final concentrations in parentheses) were added: first strand buffer (1×), DTT (10 mM), dNTP mix (1 mM each of dATP, dGTP, dTTP), [α-^33P]dCTP (3.3 μCi/μl) and Superscript II Reverse Transcriptase (10 units/μL). The samples were kept at 37° C. for 1.5 hr. Unincorporated nucleotides were removed by spinning the reaction mixture through a G-50 column. […] Probe quality was assessed by electrophoresis on a 10% denaturing polyacrylamide minigel. Denatured probes were added directly to the Microhyb solution and hybridized overnight at 42° C. Membranes were washed twice under each of the following conditions: (1) 2× SSC/0.1% SDS at room temperature, 5 min; (2) 0.2× SSC/0.1% SDS at room temperature, 5 min; (3) 0.2× SSC/0.1% SDS at 42° C., 15 min, (4) 0.1× SSC/0.1% SDS at 68° C., 15 min. Membranes were then rinsed briefly in 2× SSC at room temperature, covered with Saran wrap, and exposed to storage phoshpor screens. After three days, screens were scanned using a Storm phosphorimager (Molecular Dynamics). Images were analyzed using ImageQuant software (Molecular Dynamics).
We employed a rapid dot blot assay as a secondary screen for gene expression changes. We tested each of the unique clones against each of the three treatments. […] For these clones, the dot blot assay functioned not as a confirmation assay but as an initial screen for differential expression. Dot blots were prepared by robotically arraying subclone-derived PCR products in quadruplicate onto positively charged nylon membranes. […] In general, each dot consisted of over 80 ng of PCR product, as estimated by inspection of the PCR reactions run on agarose gels. This high quantity of DNA ensured that saturation of spots, with consequent loss of quantitation, would not occur. Spots of genomic DNA were included on each filter to allow normalization between control and treated sample intensities.

[3] = test system: HepG2 cells; test: cDNA array (GF200) expression profiling; assay type: cell-based, human; settings: 20 mM acetaminophen, 16 mM caffeine, 100 mM thioacetamide
Protocol: Cells were grown in DMEM/F12 medium with 10% fetal bovine serum in tissue culture flasks for 3 days following splitting, at which time they were at or near confluency. […] For each treated sample, an untreated control flask was set up with the same medium. Following the treatment period, mRNA was isolated by affinity purification on oligo(dT) cellulose resin using the Poly(A) Pure mRNA isolation kit from Ambion. RNA quality was assessed by agarose gel electrophoresis, and yields were determined by absorbance at 260 nm.
Radiolabeled cDNA for array hybridizations were prepared as follows. To a solution of 2 μg of RNA in 8 μl DEPC-treated water was added 2 μl of 1 μg/μl oligo(dT) (10-20 mer mixture, Research Genetics). After incubation for 10 min at 70° C., the solution was chilled on ice for 2 min, and then added to 6 μl of 5× first strand buffer (250 mM Tris-HCl (pH 8.3), 375 mM KCl, 15 mM MgCl2; Gibco-BRL), 1 μl of 0.1M DTT, 1.5 μl dNTP mix (20 mM each dATP, dGTP and dTTP), 10 μl of 10 mCi/ml [α-^33P]dCTP (1000 Ci/mmol, Amersham), and 1.5 μl of 200 U/μl reverse transcriptase (Superscript II, Gibco-BRL). Following a 90 min incubation at 37° C., cDNA targets were purified by passage through G-50 Sephadex spin columns (Pharmacia) or Bio-Spin 6 columns (BioRad).
GF200 cDNA arrays (Research Genetics) were washed in 0.5% boiling SDS for 5 min and prehybridized for 3 hrs at 42° C. in 5 ml MicroHyb solution (Research Genetics) containing 5 μl of 1 μg/ml poly(dA) (Research Genetics) and 5 μl of 1 μg/ml human Cot-I DNA (Gibco-BRL) that was denatured for 3 min at 100° C. prior to use. Labeled target nucleic acids, boiled for 3 min, were added directly, and hybridization was allowed to proceed for 16-18 hr at 42° C. in roller bottles in hybridization ovens. Arrays were washed twice in 2× SSC, 1% SDS at room temperature for 2 min, and then twice in 0.5× SSC, 1% SDS at 65° C. for 20 min. Arrays were exposed to storage phosphor screens for 3 days and scanned using a phosphorimager (Molecular Dynamics). Arrays were stripped for reuse by placing in boiling 0.5% SDS and then incubating for 1.5 hr with shaking at room temperature, allowing to solution to cool. After stripping, arrays were exposed to storage phosphor screens overnight to confirm loss of signal.
Spot intensities were determined using Pathways software (Research Genetics). Data from quadruplicate sets of hybridizations were normalized by local regression using NLR software (Tom Kepler, North Carolina State University). Cluster analysis was carried out using the Clustan Graphics software package from Clustan Limited (Edinburgh).

Cn1c(=O)c2c(ncn2C)n(C)c1=O [caffeine]
inhibition at 16000 µM ([1]; HepG2, 24 h, read-out: Inhibition of BrdU uptake (cell proliferation)): 67 to 80% | IC50 ([1]; HepG2, read-out: IC50, BrdU incorporation in HepG2 cells): ~6 mM | Number of 27 unconfirmed or non-matching clones showing an expression change [2]: 7 | Number of genes with statistically significant (p<0.05) change in expression in three or more adjacent time points ([3]; 1 to 24 hr time course): 158 | Global differential gene expression (rms) over time ([3]; 1 to 24 hr): few changes until 6 hr, after which overall differential expression is fairly constant
